Measurements from patent publication US11572590B2, “Methods for evaluating tumor cell spheroids using 3D microfluidic cell culture device” (Dana-Farber Cancer Institute, Inc., priority 2017, dated 2023).
Where two headings read alike, the source gives them in different places.

Target: T1, off-target kinases (Homo sapiens, UniProt Q99683)
T1 sequence (Q99683 1-1374): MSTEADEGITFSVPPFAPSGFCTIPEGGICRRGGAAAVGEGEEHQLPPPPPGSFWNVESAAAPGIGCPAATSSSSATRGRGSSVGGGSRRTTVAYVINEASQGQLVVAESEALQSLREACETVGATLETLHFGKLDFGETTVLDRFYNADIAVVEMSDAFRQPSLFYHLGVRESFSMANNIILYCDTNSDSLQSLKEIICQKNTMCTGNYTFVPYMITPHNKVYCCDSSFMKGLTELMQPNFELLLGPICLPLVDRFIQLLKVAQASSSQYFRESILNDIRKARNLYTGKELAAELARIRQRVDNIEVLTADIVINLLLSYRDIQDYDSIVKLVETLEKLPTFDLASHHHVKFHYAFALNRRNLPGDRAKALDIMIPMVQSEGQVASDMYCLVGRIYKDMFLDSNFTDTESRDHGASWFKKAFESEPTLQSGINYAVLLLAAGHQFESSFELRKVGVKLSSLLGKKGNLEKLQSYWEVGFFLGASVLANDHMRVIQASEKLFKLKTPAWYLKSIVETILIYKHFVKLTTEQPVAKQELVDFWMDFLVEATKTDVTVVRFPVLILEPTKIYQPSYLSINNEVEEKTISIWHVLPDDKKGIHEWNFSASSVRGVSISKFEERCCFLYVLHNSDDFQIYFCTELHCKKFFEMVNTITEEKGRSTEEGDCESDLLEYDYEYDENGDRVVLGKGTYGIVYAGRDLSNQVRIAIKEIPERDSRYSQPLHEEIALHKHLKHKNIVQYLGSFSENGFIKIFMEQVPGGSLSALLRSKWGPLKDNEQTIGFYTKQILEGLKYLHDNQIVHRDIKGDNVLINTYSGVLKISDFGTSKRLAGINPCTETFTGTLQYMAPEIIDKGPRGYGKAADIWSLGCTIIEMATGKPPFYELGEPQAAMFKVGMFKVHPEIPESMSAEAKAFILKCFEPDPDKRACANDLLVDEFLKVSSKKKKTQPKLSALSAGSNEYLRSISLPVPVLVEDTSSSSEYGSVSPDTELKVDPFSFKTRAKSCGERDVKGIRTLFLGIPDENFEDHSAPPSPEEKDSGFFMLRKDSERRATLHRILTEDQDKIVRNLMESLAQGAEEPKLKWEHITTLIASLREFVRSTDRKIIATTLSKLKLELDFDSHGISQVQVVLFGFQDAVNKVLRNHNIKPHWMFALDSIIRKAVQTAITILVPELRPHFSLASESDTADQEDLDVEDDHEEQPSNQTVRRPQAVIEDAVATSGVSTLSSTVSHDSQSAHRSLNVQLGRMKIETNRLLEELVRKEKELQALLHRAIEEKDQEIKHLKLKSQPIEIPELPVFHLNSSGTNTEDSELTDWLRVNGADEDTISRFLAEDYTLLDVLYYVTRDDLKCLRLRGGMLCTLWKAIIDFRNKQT
Assay: SelectScreen Kinase Profiling, single point inhibition and IC50 for off-target kinases
Type: biochemical
Conditions: MAP3K5 (ASK1), LanthaScreen Binding

N#Cc1cc(-c2ncnc(Nc3ccc(N4CCN(C5COC5)CC4)cc3)n2)ccc1OC1CCOCC1 [Compound 1, 5-(4-((4-(4-(oxetan-3-yl)piperazin-1-yl)phenyl)amino)-1,3,5-triazin-2-yl)-2-((tetrahydro-2H-pyran-4-yl)oxy)benzonitrile]
inhibition (read-out: % Inhibition 1): 7% | inhibition (read-out: % Inhibition 2): 8% | inhibition (read-out: % Inhibition Avg): 7%
